In patent US6689773B2, “Uracil substituted phenyl sulfamoyl carboxamides” (BASF Aktiengesellschaft, priority 2000, dated 2004):

Legend:
Assay type in all cases: in vivo
[1] = test system: ALOMY, Blackgrass, Alopecurus myosuroides; assay: Preemergence herbicidal evaluation (Example 148); conditions: rating scale 0-9, two to four weeks after treatment
Experimental: (§1) The scale is based upon a visual observation of plant stand, vigor, malformation, size, chlorosis and overall plant appearance as compared with a control.
(§2) The herbicidal activity of the compounds of the present invention was evaluated by the following tests wherein the seeds of a variety of monocotyledonous and dicotyledonous plants were separately mixed with potting soil and planted on top of approximately one inch of soil in separate pint cups. After planting, the cups were sprayed with the selected aqueous acetone solution containing test compound in sufficient quantity to provide the equivalent of about 0.125 to 0.250 kg per hectare of test compound per cup. The treated cups were then placed on greenhouse benches, watered and cared for in accordance with conventional greenhouse procedures. From two to four weeks after treatment, the tests were terminated and each cup was examined and rated according to the rating system provided in Example 94. When more than one test was performed for a given compound, the data were averaged.

[2] = test system: ZEAMX, Field corn, Zea mays L.; assay: Preemergence herbicidal evaluation (Example 148); conditions: rating scale 0-9, two to four weeks after treatment
Experimental: as §1, §2

[3] = test system: DIGSA, Crabgrass, (Hairy) L, Digitaria sanguinalis, (L)Scop; assay: Preemergence herbicidal evaluation (Example 148); conditions: rating scale 0-9, two to four weeks after treatment
Experimental: as §1, §2

[4] = test system: CHEAL, Lambsquarters, Chenopodium album, L. Common; assay: Preemergence herbicidal evaluation (Example 148); conditions: rating scale 0-9, two to four weeks after treatment
Experimental: as §1, §2

[5] = test system: ABUTH, Velvetleaf, Abutilon theophrasti, Medic.; assay: Preemergence herbicidal evaluation (Example 148); conditions: rating scale 0-9, two to four weeks after treatment
Experimental: as §1, §2

[6] = test system: SETVI, Green foxtail, Setaria viridis, (L.)Beau; assay: Preemergence herbicidal evaluation (Example 148); conditions: rating scale 0-9, two to four weeks after treatment
Experimental: as §1, §2

[7] = test system: ECHCG, Barnyardgrass, Echinochloa crusgalli, (L.)Beau; assay: Preemergence herbicidal evaluation (Example 148); conditions: rating scale 0-9, two to four weeks after treatment
Experimental: as §1, §2

[8] = test system: IPOHE, Morningglory, Ivyleaf, Ipomoea hederacea, (L)Jacq.; assay: Preemergence herbicidal evaluation (Example 148); conditions: rating scale 0-9, two to four weeks after treatment
Experimental: as §1, §2

[9] = test system: AMBEL, Ragweed, Common, Ambrosia artemiisifolia, L.; assay: Preemergence herbicidal evaluation (Example 148); conditions: rating scale 0-9, two to four weeks after treatment
Experimental: as §1, §2

[10] = test system: XANST, Cocklebur, Xanthium strumariam; assay: Preemergence herbicidal evaluation (Example 148); conditions: rating scale 0-9, two to four weeks after treatment
Experimental: as §1, §2

[11] = test system: GLXMA, Soybean, Glycine max, (L.) Merr.; assay: Preemergence herbicidal evaluation (Example 148); conditions: rating scale 0-9, two to four weeks after treatment
Experimental: as §1, §2

[12] = test system: TRZAW, Winter wheat, Tritium Aestivum, L. (Winter); assay: Preemergence herbicidal evaluation (Example 148); conditions: rating scale 0-9, two to four weeks after treatment
Experimental: as §1, §2

[13] = test system: ALOMY, Blackgrass, Alopecurus myosuroides; assay: Postemergence herbicidal evaluation (Example 147); conditions: rating scale 0-9, two to three weeks after treatment
Experimental: (§3) Seedling plants were grown in jiffy flats for about two weeks. The test compounds were dispersed in 80/20 acetone/water mixtures containing 1.0% SUN-IT®II, a methylated seed oil, in sufficient quantities to provide the equivalent of about 0.016 to 0.032 kg per hectare of active compound when applied to the plants through a spray nozzle operating at 40 psi for a predetermined time. After spraying, the plants were placed on greenhouse benches and were cared for in accordance with conventional greenhouse procedures. Approximately two to three weeks after treatment, the seedling plants were examined and rated according to the rating scale (0-9) set forth below. Where more than one test is involved for a given compound, the data are averaged. [table] The scale is based upon a visual observation of plant stand, vigor, malformation, size, chlorosis and overall plant appearance as compared with a control. Plant species employed in these evaluations are reported by header abbreviation, common name and scientific name. [table]

[14] = test system: ZEAMX, Field corn, Zea mays L.; assay: Postemergence herbicidal evaluation (Example 147); conditions: rating scale 0-9, two to three weeks after treatment
Experimental: as §3

[15] = test system: DIGSA, Crabgrass, (Hairy) L, Digitaria sanguinalis, (L)Scop; assay: Postemergence herbicidal evaluation (Example 147); conditions: rating scale 0-9, two to three weeks after treatment
Experimental: as §3

[16] = test system: CHEAL, Lambsquarters, Chenopodium album, L. Common; assay: Postemergence herbicidal evaluation (Example 147); conditions: rating scale 0-9, two to three weeks after treatment
Experimental: as §3

[17] = test system: ABUTH, Velvetleaf, Abutilon theophrasti, Medic.; assay: Postemergence herbicidal evaluation (Example 147); conditions: rating scale 0-9, two to three weeks after treatment
Experimental: as §3

[18] = test system: SETVI, Green foxtail, Setaria viridis, (L.)Beau; assay: Postemergence herbicidal evaluation (Example 147); conditions: rating scale 0-9, two to three weeks after treatment
Experimental: as §3

[19] = test system: ECHCG, Barnyardgrass, Echinochloa crusgalli, (L.)Beau; assay: Postemergence herbicidal evaluation (Example 147); conditions: rating scale 0-9, two to three weeks after treatment
Experimental: as §3

[20] = test system: IPOHE, Morningglory, Ivyleaf, Ipomoea hederacea, (L)Jacq.; assay: Postemergence herbicidal evaluation (Example 147); conditions: rating scale 0-9, two to three weeks after treatment
Experimental: as §3

[21] = test system: AMBEL, Ragweed, Common, Ambrosia artemiisifolia, L.; assay: Postemergence herbicidal evaluation (Example 147); conditions: rating scale 0-9, two to three weeks after treatment
Experimental: as §3

[22] = test system: GLXMA, Soybean, Glycine max, (L.) Merr.; assay: Postemergence herbicidal evaluation (Example 147); conditions: rating scale 0-9, two to three weeks after treatment
Experimental: as §3

[23] = test system: TRZAW, Winter wheat, Tritium Aestivum, L. (Winter); assay: Postemergence herbicidal evaluation (Example 147); conditions: rating scale 0-9, two to three weeks after treatment
Experimental: as §3

Compound: CC(C)CCNS(=O)(=O)NC(=O)c1cc(-n2c(=O)cc(C(F)(F)F)n(C)c2=O)c(F)cc1Cl [Example 72]
- Preemergence herbicidal rating ALMOY ([1]; rate 0.125 kg/ha): 1.0
- Preemergence herbicidal rating ALMOY ([1]; rate 0.25 kg/ha): 2.0
- Preemergence herbicidal rating ZEAMX ([2]; rate 0.125 kg/ha): 0.0
- Preemergence herbicidal rating ZEAMX ([2]; rate 0.25 kg/ha): 0.0
- Preemergence herbicidal rating DIGSA ([3]; rate 0.125 kg/ha): 2.0
- Preemergence herbicidal rating DIGSA ([3]; rate 0.25 kg/ha): 7.0
- Preemergence herbicidal rating CHEAL ([4]; rate 0.125 kg/ha): 9.0
- Preemergence herbicidal rating CHEAL ([4]; rate 0.25 kg/ha): 9.0
- Preemergence herbicidal rating ABUTH ([5]; rate 0.125 kg/ha): 9.0
- Preemergence herbicidal rating ABUTH ([5]; rate 0.25 kg/ha): 9.0
- Preemergence herbicidal rating SETVI ([6]; rate 0.125 kg/ha): 4.0
- Preemergence herbicidal rating SETVI ([6]; rate 0.25 kg/ha): 8.0
- Preemergence herbicidal rating ECHCG ([7]; rate 0.125 kg/ha): 7.0
- Preemergence herbicidal rating ECHCG ([7]; rate 0.25 kg/ha): 6.0
- Preemergence herbicidal rating IPOHE ([8]; rate 0.125 kg/ha): 9.0
- Preemergence herbicidal rating IPOHE ([8]; rate 0.25 kg/ha): 9.0
- Preemergence herbicidal rating AMBEL ([9]; rate 0.125 kg/ha): 9.0
- Preemergence herbicidal rating AMBEL ([9]; rate 0.25 kg/ha): 9.0
- Preemergence herbicidal rating XANST ([10]; rate 0.125 kg/ha): 7.0
- Preemergence herbicidal rating XANST ([10]; rate 0.25 kg/ha): 9.0
- Preemergence herbicidal rating GLXMA ([11]; rate 0.125 kg/ha): 8.0
- Preemergence herbicidal rating GLXMA ([11]; rate 0.25 kg/ha): 9.0
- Preemergence herbicidal rating TRZAW ([12]; rate 0.125 kg/ha): 0.0
- Preemergence herbicidal rating TRZAW ([12]; rate 0.25 kg/ha): 1.0
- Postemergence herbicidal rating ALMOY ([13]; rate 0.016 kg/ha): 1.0
- Postemergence herbicidal rating ALMOY ([13]; rate 0.032 kg/ha): 2.0
- Postemergence herbicidal rating ZEAMX ([14]; rate 0.016 kg/ha): 7.0
- Postemergence herbicidal rating ZEAMX ([14]; rate 0.032 kg/ha): 7.0
- Postemergence herbicidal rating DIGSA ([15]; rate 0.016 kg/ha): 4.0
- Postemergence herbicidal rating DIGSA ([15]; rate 0.032 kg/ha): 4.0
- Postemergence herbicidal rating CHEAL ([16]; rate 0.016 kg/ha): 8.0
- Postemergence herbicidal rating CHEAL ([16]; rate 0.032 kg/ha): 8.0
- Postemergence herbicidal rating ABUTH ([17]; rate 0.016 kg/ha): 9.0
- Postemergence herbicidal rating ABUTH ([17]; rate 0.032 kg/ha): 9.0
- Postemergence herbicidal rating SETVI ([18]; rate 0.016 kg/ha): 5.0
- Postemergence herbicidal rating SETVI ([18]; rate 0.032 kg/ha): 6.0
- Postemergence herbicidal rating ECHCG ([19]; rate 0.016 kg/ha): 6.0
- Postemergence herbicidal rating ECHCG ([19]; rate 0.032 kg/ha): 8.0
- Postemergence herbicidal rating IPOHE ([20]; rate 0.016 kg/ha): 9.0
- Postemergence herbicidal rating IPOHE ([20]; rate 0.032 kg/ha): 9.0
- Postemergence herbicidal rating AMBEL ([21]; rate 0.016 kg/ha): 9.0
- Postemergence herbicidal rating AMBEL ([21]; rate 0.032 kg/ha): 9.0
- Postemergence herbicidal rating GLXMA ([22]; rate 0.016 kg/ha): 8.5
- Postemergence herbicidal rating GLXMA ([22]; rate 0.032 kg/ha): 8.5
- Postemergence herbicidal rating TRZAW ([23]; rate 0.016 kg/ha): 5.5
- Postemergence herbicidal rating TRZAW ([23]; rate 0.032 kg/ha): 6.5

Compound: CN(c1ccccc1)S(=O)(=O)NC(=O)c1cc(-n2c(=O)cc(C(F)(F)F)n(C)c2=O)c(F)cc1Cl [Example 73]
- Preemergence herbicidal rating ALMOY ([1]; rate 0.125 kg/ha): 0.0
- Preemergence herbicidal rating ALMOY ([1]; rate 0.25 kg/ha): 0.0
- Preemergence herbicidal rating ZEAMX ([2]; rate 0.125 kg/ha): 0.0
- Preemergence herbicidal rating ZEAMX ([2]; rate 0.25 kg/ha): 0.0
- Preemergence herbicidal rating DIGSA ([3]; rate 0.125 kg/ha): 3.0
- Preemergence herbicidal rating DIGSA ([3]; rate 0.25 kg/ha): 3.0
- Preemergence herbicidal rating CHEAL ([4]; rate 0.125 kg/ha): 9.0
- Preemergence herbicidal rating CHEAL ([4]; rate 0.25 kg/ha): 9.0
- Preemergence herbicidal rating ABUTH ([5]; rate 0.125 kg/ha): 9.0
- Preemergence herbicidal rating ABUTH ([5]; rate 0.25 kg/ha): 9.0
- Preemergence herbicidal rating SETVI ([6]; rate 0.125 kg/ha): 2.0
- Preemergence herbicidal rating SETVI ([6]; rate 0.25 kg/ha): 5.0
- Preemergence herbicidal rating ECHCG ([7]; rate 0.125 kg/ha): 0.0
- Preemergence herbicidal rating ECHCG ([7]; rate 0.25 kg/ha): 3.0
- Preemergence herbicidal rating IPOHE ([8]; rate 0.125 kg/ha): 9.0
- Preemergence herbicidal rating IPOHE ([8]; rate 0.25 kg/ha): 9.0
- Preemergence herbicidal rating AMBEL ([9]; rate 0.125 kg/ha): 9.0
- Preemergence herbicidal rating AMBEL ([9]; rate 0.25 kg/ha): 9.0
- Preemergence herbicidal rating XANST ([10]; rate 0.125 kg/ha): 3.0
- Preemergence herbicidal rating XANST ([10]; rate 0.25 kg/ha): 9.0
- Preemergence herbicidal rating GLXMA ([11]; rate 0.125 kg/ha): 0.0
- Preemergence herbicidal rating GLXMA ([11]; rate 0.25 kg/ha): 0.0
- Preemergence herbicidal rating TRZAW ([12]; rate 0.125 kg/ha): 0.0
- Preemergence herbicidal rating TRZAW ([12]; rate 0.25 kg/ha): 0.0
- Postemergence herbicidal rating ALMOY ([13]; rate 0.016 kg/ha): 2.0
- Postemergence herbicidal rating ALMOY ([13]; rate 0.032 kg/ha): 3.0
- Postemergence herbicidal rating ZEAMX ([14]; rate 0.016 kg/ha): 7.0
- Postemergence herbicidal rating ZEAMX ([14]; rate 0.032 kg/ha): 7.5
- Postemergence herbicidal rating DIGSA ([15]; rate 0.016 kg/ha): 4.0
- Postemergence herbicidal rating DIGSA ([15]; rate 0.032 kg/ha): 6.0
- Postemergence herbicidal rating CHEAL ([16]; rate 0.016 kg/ha): 8.0
- Postemergence herbicidal rating CHEAL ([16]; rate 0.032 kg/ha): 9.0
- Postemergence herbicidal rating ABUTH ([17]; rate 0.016 kg/ha): 9.0
- Postemergence herbicidal rating ABUTH ([17]; rate 0.032 kg/ha): 9.0
- Postemergence herbicidal rating SETVI ([18]; rate 0.016 kg/ha): 4.0
- Postemergence herbicidal rating SETVI ([18]; rate 0.032 kg/ha): 5.0
- Postemergence herbicidal rating ECHCG ([19]; rate 0.016 kg/ha): 4.0
- Postemergence herbicidal rating ECHCG ([19]; rate 0.032 kg/ha): 7.0
- Postemergence herbicidal rating IPOHE ([20]; rate 0.016 kg/ha): 9.0
- Postemergence herbicidal rating IPOHE ([20]; rate 0.032 kg/ha): 9.0
- Postemergence herbicidal rating AMBEL ([21]; rate 0.016 kg/ha): 9.0
- Postemergence herbicidal rating AMBEL ([21]; rate 0.032 kg/ha): 9.0
- Postemergence herbicidal rating GLXMA ([22]; rate 0.016 kg/ha): 8.5
- Postemergence herbicidal rating GLXMA ([22]; rate 0.032 kg/ha): 8.5
- Postemergence herbicidal rating TRZAW ([23]; rate 0.016 kg/ha): 5.5
- Postemergence herbicidal rating TRZAW ([23]; rate 0.032 kg/ha): 6.5
